We go through two molecules from PMC9219824, “Antiplasmodial Cyclodecapeptides from Tyrothricin Share a Target with Chloroquine” (Antibiotics, 2022).

For one data set, the system named is CQI P. falciparum D10. As to the kind of experiment: microbe, parasite or virus in culture. Particulars: for IC50: 48 h, Malstat, ± SEM. It counts as cell-based, Plasmodium falciparum. Here is the method:
(§1) The antimalarial assays were carried out according to the method of Nkhoma et al.. Once the cultures reached a parasitemia of 5–15%, they were synchronized four days prior to the day of the assay as described above which allowed the cultures to recover from the stress caused by the D-sorbitol. On the day of the assay, the parasitemia was determined following observation by light microscopy after Giemsa staining of a thin blood smear from the culture. The cultures at young trophozoite stage were diluted to 2% parasitemia and 2% hematocrit by addition of fresh RPMI medium and uninfected erythrocytes. This culture suspension was distributed in 96-well culture plates at 90 µL/well. The peptides and CQ diluted in culture medium lacking albumax II were added to the cultures in triplicate at 10 µL/well to give a total volume of 100 µL/well. Peptide solvent and medium (10 µL/well) was used as sterility control and in growth control and 10 μL 1.0 mM GS was used as positive control. Assays were carried out in at least three biological repeats each consisting of three technical repeats to ascertain reproducibility.
For the activity determination against parasites, plates were incubated at 37 °C for 48 h under an atmosphere of 3% CO2, 4% O2 and 93% N2. The culture suspension was frozen away at −20 °C until determination of the residual lactate dehydrogenase activity of the parasites by the Malstat assay, as adapted from Gomez et al..
(§2) For the Malstat assay, the plates were transferred to −80 °C for 1 h following overnight storage at −20 °C to ensure that all the suspensions in each well of the 96-well plate were frozen. The plates were then thawed at room temperature. The Malstat reagent consisted of 200 μL Triton X-100, 2 g L-lactic acid (substrate), 0.66 g Tris-HCl buffer and 0.011 g of 3-acetylpyridine adenine dinucleotide (APAD) (coenzyme for parasite lactate dehydrogenase) in 100 mL analytical quality water set to a pH of 9.0 [93]. The lactate dehydrogenase reaction was initiated by addition of a second solution, NBT/PES solution composed of 1.96 mM nitro blue tetrazolium (NBT) and 0.24 mM phenazine ethosulfate (PES) which was always protected from light. A 15 µL aliquot of the thawed and properly mixed suspension from the assay plates was added to 100 µL of the Malstat reagent, followed by addition of 25 µL of the NBT/PES solution. The reaction mixtures were then incubated at room temperature in the dark for 30 min followed by spectrophotometric measurement of the absorbance of the reduced APAD at 620 nm using a Model 680 Microplate reader from BioRad.
(§3) The data obtained from spectrophotometric measurement of the plates following the lactate dehydrogenase (Malstat) assay were converted to percentage growth inhibition using the data analysis method described by Rautenbach et al.. The background was obtained from control wells in which the parasites were killed with 100 µM GS while total growth was from the wells that were not submitted to peptides. The background for the hemolysis evaluation was from wells in which the uninfected erythrocytes were lysed using 100 µM GS while growth control was from the wells with uninfected erythrocytes that received no peptides. The percentage COS-1 cell death (CellTiter Blue™ assay) was similarly calculated from absorbance values. All the dose–response assay data were evaluated using GraphPad Prism 4.03 (GraphPad Software, San Diego, CA, USA) followed by non-linear regression and sigmoidal curves were fitted (having variable slope and a constant difference of 100 between the top and bottom plateau). Following calculation of the 50% P. falciparum inhibitory concentration (IC50), 50% hemolytic concentration (HC50) and 50% lethal concentration (LC50) for COS-1 cells.

The test system of the next data set is CQS P. falciparum 3D7. As to the kind of experiment: microbe, parasite or virus in culture. It counts as cell-based, Plasmodium falciparum. Here is the method:
as §1, with “Once the cultures reached a parasitemia of 5–15%, they were synchronized four days prior to the day of the assay as described above which allowed the cultures to recover from the stress caused by the D-sorbitol.” left out, “The peptides and CQ diluted in culture medium lacking albumax II were added to the cultures in triplicate at 10 µL/well to give a total volume of 100 µL/well.” left out
(§4) The culture suspension was frozen away at −20 °C until determination of the residual lactate dehydrogenase activity of the parasites by the Malstat assay, as adapted from Gomez et al..
as §2, with “The lactate dehydrogenase reaction was initiated by addition of a second solution, NBT/PES solution composed of 1.96 mM nitro blue tetrazolium (NBT) and 0.24 mM phenazine ethosulfate (PES) which was always protected from light.” left out
(§5) The data obtained from spectrophotometric measurement of the plates following the lactate dehydrogenase (Malstat) assay were converted to percentage growth inhibition using the data analysis method described by Rautenbach et al.. The background was obtained from control wells in which the parasites were killed with 100 µM GS while total growth was from the wells that were not submitted to peptides. […] The percentage COS-1 cell death (CellTiter Blue™ assay) was similarly calculated from absorbance values.

A further data set deals with CQR P. falciparum Dd2. As to the kind of experiment: microbe, parasite or virus in culture. It counts as cell-based, Plasmodium falciparum. Particulars: for IC50: read-out: IC50, CQR P. falciparum Dd2; for Resistance Index IC50Dd2/IC503D7: first value of cell; for Resistance Index IC50Dd2/IC50D10: second value of cell. On the procedure: as §1, with “Once the cultures reached a parasitemia of 5–15%, they were synchronized four days prior to the day of the assay as described above which allowed the cultures to recover from the stress caused by the D-sorbitol.” left out, “The peptides and CQ diluted in culture medium lacking albumax II were added to the cultures in triplicate at 10 µL/well to give a total volume of 100 µL/well.” left out
as §4
as §2, with “The lactate dehydrogenase reaction was initiated by addition of a second solution, NBT/PES solution composed of 1.96 mM nitro blue tetrazolium (NBT) and 0.24 mM phenazine ethosulfate (PES) which was always protected from light.” left out
as §5

A further data set relates to human erythrocytes. Description: Hemolytic activity. It counts as cell-based. Particulars: 2% hematocrit, 1 h at 37 °C, ± SEM. Here is the method:
To determine the hemolytic activity of the peptides, the duplicate 96-well plates with samples added to 90 μL 2% hematocrit per well were incubated for one hour at 37 °C and centrifuged using a swing-out rotor at 200× g for 3 min. The supernatant was diluted 1:8 in analytical quality water in separate 96-well plates and after mixing, the absorbance of the suspension was determined at 405 nm.
as §3

Data set [1] is described as follows: Toxicity to COS-1 cells, CellTiter Blue viability. It counts as cell-based. Particulars: 24 h, resazurin (CellTiter Blue), read-out: Toxicity LC50, COS Cells. On the procedure: COS-1 cells were cultured in DMEM containing 0.9 g/L glucose, 0.12% NaHCO3, 10% fetal calf serum and 1% penicillin–streptomycin at 37 °C and under an atmosphere of 5% CO2 [95]. Twenty hours before the assay, the cells were transferred to 96-well plates at a density of 1.5 × 10^4 cells/well. The peptides from the dilution series were added to each well and incubated for 24 h. The cell viability was measured by adding 20 μL/well resazurin reagent (CellTiter Blue™), followed by four hours incubation at room temperature in the dark and measurement of the absorbance at 560 nm and 600 nm in the BioRad microplate reader.
as §3
For orientation: The colour change of resazurin is a common sign of viable cells or microbes.

Structures are written as SMILES. Like-named read-outs stand apart in the source and are kept apart here. Square brackets hold non-standard residues; d marks the D form. Peptide text beside a SMILES is read from it. Orn = NCCC[C@H](N)C(=O)O

For the molecule `CCN(CC)CCCC(C)Nc1ccnc2cc(Cl)ccc12` (stereo not shown) [CQ, chloroquine], the IC50 in the data set on CQI P. falciparum D10 (Plasmodium falciparum, D10) is 40 ± 3 nM; with CQS P. falciparum 3D7 (Plasmodium falciparum, 3D7, 48 h, read-out: IC50, CQS P. falciparum 3D7) it was 17 ± 5 nM; in the data set on CQR P. falciparum Dd2 (Plasmodium falciparum, DD2, 48 h), 277 ± 18 nM. Besides, the “Resistance Index IC50Dd2/IC503D7” value in the data set with CQR P. falciparum Dd2 is 16. Moreover, in the data set with CQR P. falciparum Dd2, the “Resistance Index IC50Dd2/IC50D10” value is reported as 7.
In the case of `CC(C)C[C@@H]1NC(=O)[C@H](CCCN)NC(=O)[C@H](C(C)C)NC(=O)[C@@H]2CCCN2C(=O)[C@@H](Cc2ccccc2)NC(=O)[C@H](CC(C)C)NC(=O)[C@H](CCCN)NC(=O)[C@H](C(C)C)NC(=O)[C@@H]2CCCN2C(=O)[C@@H](Cc2ccccc2)NC1=O` [GS, gramicidin S, reference compound] (cyclo(V[Orn]L[dF]PV[Orn]L[dF]P)), the IC50 in the data set with CQI P. falciparum D10 was found to be 1400 ± 86 nM; in the data set on CQS P. falciparum 3D7 (CQS 3D7, 48 h), 1450 ± 151 nM; in the data set with CQR P. falciparum Dd2 (48 h, Malstat, ± SEM) it was 1860 ± 160 nM. For the same molecule, the “Selectivity Index IC50D10/IC50 (COS cells)” value with CQI P. falciparum D10 (second value of cell) came out at 6. Also, the “HC50, Erythrocytes” value with human erythrocytes was 6.2 ± 0.4 (9) μM. In addition, the CC50 in data set [1] came out at 9000 nM. In addition, in the data set with CQR P. falciparum Dd2, the “Resistance Index IC50Dd2/IC503D7” value is reported as 1.3; 1.3. Moreover, in the data set with CQR P. falciparum Dd2, the “Resistance Index IC50Dd2/IC50D10” value is on record as 1.3; 1.3.

By IC50 is commonly meant the point on the concentration scale where inhibition reaches its midpoint.
